Test results reported in patent publication US20260015339A1, “CALIX[4]ARENES WITH HIGH ANTICANCER ACTIVITY” (UNIVERSITE GRENOBLE ALPES, priority 2023, published 2026).

What was measured:
Test in all cases: PROLiFiler-Cell Panel Screening (CellTiterGlo)
Type in all cases: cell-based
NCI-H1838 = details: Homo sapiens; Lung, NCI-H1838, 72 hours
Procedure: (§1) For the assays, cells were seeded in white cell culture-treated flat and clear bottom 384-well multiwall plates and incubated at 37° C. overnight before the calix[4]arene of the formula (2) or the reference compound were added. After incubation for 72 hours at 37° C. at 5% or 10% CO2 depending on the medium, cell plates were equilibrated to room temperature (i.e. 20° C.) for one hour, CellTiterGlo® reagent from the firm Promega was added and luminescence was measured approximately an hour later using a luminometer.
(§2) Raw data were converted into percent cell viability relative to the high and low control, which were set to 100% and 0%, respectively.

BT-20 = details: Homo sapiens; Breast, BT-20, 72 hours
Procedure: as §1, §2

HCC38 = details: Homo sapiens; Breast, HCC38, 72 hours
Procedure: as §1, §2

HT-29 = details: Homo sapiens; Colon, HT-29, 72 hours
Procedure: as §1, §2

T84 = details: Homo sapiens; Colon, T84, 72 hours
Procedure: as §1, §2

HCC827 = details: Homo sapiens; Lung, HCC827, 72 hours
Procedure: as §1, §2

JIMT-1 = details: Homo sapiens; Breast, JIMT-1, 72 hours
Procedure: as §1, §2

A2058 = details: Homo sapiens; Skin, A2058, 72 hours
Procedure: as §1, §2

KARPAS 299 = details: Homo sapiens; Blood, KARPAS 299, 72 hours
Procedure: as §1, §2

HeLa = details: Homo sapiens, Cervix, 72 hours
Procedure: as §1, §2

SNU840 = details: SNU-840; Ovary, SNU840, 72 hours
Procedure: as §1, §2

DLD-1 = details: Homo sapiens; Colon, DLD-1, 72 hours
Procedure: as §1, §2

U2OS = details: Homo sapiens, Bone, 72 hours
Procedure: as §1, §2

COR-L279 = details: Homo sapiens; Lung, COR-L279, 72 hours
Procedure: as §1, §2

A498 = details: Homo sapiens; Kidney, A498, 72 hours
Procedure: as §1, §2

AsPC-1 = details: Homo sapiens, ASPC1; Pancreas, AsPC-1, 72 hours
Procedure: as §1, §2

SW948 = details: Homo sapiens; Colon, SW948, 72 hours
Procedure: as §1, §2

EPLC-272H = details: Homo sapiens, Lung, 72 hours
Procedure: as §1, §2

HL-60 = details: Homo sapiens; Blood, HL-60, 72 hours
Procedure: as §1, §2

MV4-11 = details: Homo sapiens; Blood, MV4-11, 72 hours
Procedure: as §1, §2

U251MG = details: Homo sapiens, U-251, Brain, 72 hours
Procedure: as §1, §2

A375 = details: Homo sapiens, A-375; Skin, A375, 72 hours
Procedure: as §1, §2

SiHa = details: Homo sapiens, Cervix, 72 hours
Procedure: as §1, §2

NCI-H1563 = details: Homo sapiens; Lung, NCI-H1563, 72 hours
Procedure: as §1, §2

HT-1080 = details: Homo sapiens; Fibrosarcoma, HT-1080, 72 hours
Procedure: as §1, §2

MKN-1 = details: Homo sapiens; Stomach, MKN-1, 72 hours
Procedure: as §1, §2

EFO-27 = details: Homo sapiens; Ovary, EFO-27, 72 hours
Procedure: as §1, §2

A172 = details: Homo sapiens, A 172; Brain, A172, 72 hours
Procedure: as §1, §2

MDA MB 435 = details: Homo sapiens; Skin, MDA MB 435, 72 hours
Procedure: as §1, §2

MDA-MB-468 = details: Homo sapiens; Breast, MDA-MB-468, 72 hours
Procedure: as §1, §2

SNU-1 = details: Homo sapiens, SNU1; Stomach, SNU-1, 72 hours
Procedure: as §1, §2

BEN = details: Lung, 72 hours
Procedure: as §1, §2

SK-OV3 = details: Homo sapiens, SK-OV-3; Ovary, SK-OV3, 72 hours
Procedure: as §1, §2

Hep3B2.1-7 = details: Liver, Hep3B2.1-7, 72 hours
Procedure: as §1, §2

SW-1783 = details: Homo sapiens, SW1783; Brain, SW-1783, 72 hours
Procedure: as §1, §2

U118MG = details: Homo sapiens, U-118-MG, Brain, 72 hours
Procedure: as §1, §2

T98G = details: Homo sapiens, Brain, 72 hours
Procedure: as §1, §2

| SMILES | IC50 (NCI-H1838) [nM] | IC50 (BT-20) [nM] | IC50 (HCC38) [nM] | IC50 (HT-29) [nM] | IC50 (T84) [nM] | IC50 (HCC827) [nM] | IC50 (JIMT-1) [nM] | IC50 (A2058) [nM] | IC50 (KARPAS 299) [nM] | IC50 (HeLa) [nM] | IC50 (SNU840) [nM] | IC50 (DLD-1) [nM] | IC50 (U2OS) [nM] | IC50 (COR-L279) [nM] | IC50 (A498) [nM] | IC50 (AsPC-1) [nM] | IC50 (SW948) [nM] | IC50 (EPLC-272H) [nM] | IC50 (HL-60) [nM] | IC50 (MV4-11) [nM] | further results |
| --- | --- | --- | --- | --- | --- | --- | --- | --- | --- | --- | --- | --- | --- | --- | --- | --- | --- | --- | --- | --- | --- |
| CCCOc1c2cccc1Cc1cccc(c1OCc1nccn1C)Cc1cccc(c1OCCC)Cc1cccc(c1OCc1nccn1C)C2 [(2)] | 3480 | 1270 | 2530 | 1200 | 2440 | 1720 | 2700 | 938 | 1480 | 1700 | 1150 | 1080 | 1060 | 1510 | 1720 | 834 | 2150 | 1470 | 1450 | 671 | IC50 (U251MG): 3530 nM; IC50 (A375): 1170 nM; IC50 (SiHa): 1250 nM; IC50 (NCI-H1563): 3440 nM; IC50 (HT-1080): 1900 nM; IC50 (MKN-1): 2160 nM; IC50 (EFO-27): 1520 nM; IC50 (A172): 1210 nM; IC50 (MDA MB 435): 2770 nM; IC50 (MDA-MB-468): 741 nM; IC50 (SNU-1): 2550 nM; IC50 (BEN): 3680 nM; IC50 (SK-OV3): 1620 nM; IC50 (Hep3B2.1-7): 781 nM; IC50 (SW-1783): 3380 nM; IC50 (U118MG): 2030 nM; IC50 (T98G): 3110 nM |
| CC(C)C[C@H](NC(=O)[C@H](Cc1ccccc1)NC(=O)c1cnccn1)B(O)O [bortezomib, reference compound] | 34.1 | 29.5 | 5.41 | 5.99 | 12.1 | 8.4 | 8.57 | 9.24 | 3.96 | 18.7 | 5.89 | 6.83 | 5.83 | 4.94 | 4.53 | 12.5 | 8.88 | 7.17 | 3.73 | 3.13 | IC50 (U251MG): 9.16 nM; IC50 (A375): 5.44 nM; IC50 (SiHa): 7.41 nM; IC50 (NCI-H1563): 19.5 nM; IC50 (HT-1080): 13.8 nM; IC50 (MKN-1): 4.32 nM; IC50 (EFO-27): 13.2 nM; IC50 (A172): 4.77 nM; IC50 (MDA MB 435): 4.3 nM; IC50 (MDA-MB-468): 4.2 nM; IC50 (SNU-1): 28.8 nM; IC50 (BEN): 53.1 nM; IC50 (SK-OV3): 24 nM; IC50 (Hep3B2.1-7): 7.98 nM; IC50 (SW-1783): 8.6 nM; IC50 (U118MG): 4.14 nM; IC50 (T98G): 11.4 nM |
